Where two headings read alike, the source gives them in different places.
Tests used:
[1] = system: ERK1 phosphorylation of its substrate RSK in HT29 cells; experiment: pRSK MSD Assay in HT29 cells; format: cell-based; details: Homo sapiens
Protocol: The protocol below describes an assay to measure the kinase activity of ERK1 to phosphorylate its substrate, RSK, in the presence of a test compound. This experiment was conducted using a Mesoscale Discovery plate. The day before the assay, HT29 cells were split and plated at 50,000 cells/well in complete growth media. After allowing cells to adhere, the media was removed and replaced with media containing 0.1% FBS and incubated overnight. Blank MDS plates were coated with 25 μl/well RSK capture antibody and incubated at 4° C. overnight. The next day, the media was removed and replaced with 100 μl of media containing a test compound and incubated for 120 minutes at 37° C. The media was removed and replaced with 55 μl of well lysis buffer with protease and phosphatase inhibitors provided in the kit, followed by incubation at 4° C. for 30 minutes. 50 μl of lysate was transferred to a blocked MSD plate, followed by incubation at room temperature for 2 hours under constant shaking. The plate was washed 3 times with MSD wash buffer (cat#R617TX), and 25 μl/well phospho-RSK (pRSK) detection antibody was added with an appropriate Sulfo-tagged anti-species detection antibody diluted in 1% BSA in MSD wash buffer. This mixture was incubated for 1 hour at room temperature under constant shaking. The plate was washed 3 times, and 150 μl 1×MSD read buffer was added, followed by signal detection in an MSD plate reader.

HT-29 cells = experiment: Measurement of inhibition of cancer cell proliferation (CellTiterGlo); format: cell-based; details: Homo sapiens, 72 hours
Protocol: Measurement of Inhibition of Cancer Cell Proliferation
HT-29 cells were split and 3000 cells in 100 μl of growth medium were added per well of a flat-bottom 96-well plate. A two-fold test compound solution in serum-free RPM1640 was made, starting at 5,000 nM. Then, 3-fold serial dilutions were made across the plate from well 1 to well 11. Well 12, the last well in a row on the plate, was left as untreated control. 100 μl compound solutions were then transferred to the wells, so the total volume of media was 200 μl per well. Plates were returned to a 37° C. incubator, and the cells were cultured for 72 hours. To measure cell proliferation after 72 hours, media was discarded from the plates, 50 μl/well of fresh medium was added, and 50 μl CellTiterGlo solution was added (Promega Cat#G7573). The plate was covered with a dark lid and incubated for 10 min. A sealing tape was applied to the bottom of the plate, and the plate was read in a luminescence plate reader. […] A 2-fold serial dilution was used to generate 8 cell densities from 50,000-390 cells per well in 50 μl media. 50 μl CellTiterGlo was added per well, and the plate was read in a luminescence plate reader after 10 min. The reading was plotted vs. cell number to generate a standard curve and the equation of the curve fit. The compound-treated sample luminescence readings were converted to cell numbers using the equation. The percent of inhibition, using untreated control as 100% growth, was then calculated. GI50 was then calculated by GraphPad Prism.

Erk1 = Erk1 (Homo sapiens (Human), UniProt P27361); experiment: Protein Mass Modification Assay (intact protein MALDI); format: binding
Chain of Erk1 (P27361 whole entry, looked up): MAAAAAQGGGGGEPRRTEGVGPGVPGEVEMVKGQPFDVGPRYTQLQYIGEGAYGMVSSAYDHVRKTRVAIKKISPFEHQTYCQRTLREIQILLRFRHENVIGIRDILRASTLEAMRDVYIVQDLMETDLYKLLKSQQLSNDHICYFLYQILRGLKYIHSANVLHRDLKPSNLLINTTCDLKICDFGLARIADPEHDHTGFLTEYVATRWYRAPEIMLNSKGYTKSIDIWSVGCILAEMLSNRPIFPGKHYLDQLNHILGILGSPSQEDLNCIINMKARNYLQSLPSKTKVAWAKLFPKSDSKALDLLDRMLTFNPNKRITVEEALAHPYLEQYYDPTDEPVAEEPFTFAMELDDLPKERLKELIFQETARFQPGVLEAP
In short: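 Percent covalent modification comes from the intact-protein MALDI centroid mass shift, treated versus control, divided by compound MW. Before analysis, human Erk1 was exposed to compound at 10-fold excess over protein for 60 min at room temperature.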

MEK1 activated ERK1 = MEK1 activated ERK1 (Homo sapiens (Human), UniProt P27361); experiment: Omnia continuous-read kinase assay for potency against MEK1 activated ERK1; format: biochemical; details: MEK1 activated ERK1, WT, ATP at KM
Chain of MEK1 activated ERK1 (P27361 whole entry): as the sequence (P27361 whole entry, looked up) above
In short: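 Apparent IC50 came from initial reaction slopes (RFU vs time) plotted against log inhibitor with a variable-slope fit. Reactions were started with ERK1 (4 nM final) added to 50 μM ATP, roughly at its appKM, and 10 μM Sox-conjugated ST17 peptide in 20 mM Tris pH 7.5, 5 mM MgCl2. Fluorescence was monitored every 71 seconds.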

[2] = HT-29, HT29 cells, read-out: ERK1 PRSK MSD HT29 EC50

GI50 (HT-29 cells) [nM] | ERK1 Mass Mod (%) (Erk1) | EC50 [1, 2] [nM] | IC50 (MEK1 activated ERK1) [nM] | Compound | EC50 ([1]; HT-29, read-out: ERK1 PRSK MSD HT29 EC50 (nM)) [nM]
501 to 999 | E (provided a mass modification of ≧70%) |  |  | C=CC(=O)Nc1cc(OC)ccc1Nc1nc(Nc2ccc(N3CCN(C(C)=O)CC3)cc2OC)ncc1Cl [Compound I-152, N-(2-((2-((4-(4-acetylpiperazin-1-yl)-2-methoxyphenyl)amino)-5-chloropyrimidin-4-yl)amino)-5-methoxyphenyl)acrylamide] | 
101 to 500 | E (provided a mass modification of ≧70%) |  |  | C=CC(=O)Nc1ccccc1Nc1nc(Nc2cc(C(=O)NOCCO)ccc2C)ncc1Cl [Compound I-198, 3-((4-((2-acrylamidophenyl)amino)-5-chloropyrimidin-2-yl)amino)-N-(2-hydroxyethoxy)-4-methylbenzamide] | 
< 100 | E (provided a mass modification of ≧70%) | < 100 |  | C=CC(=O)Nc1ccccc1Nc1nc(Nc2cc(N[C@H]3CC[C@@H](O)CC3)nc(OC)c2)ncc1C(F)(F)F [Compound I-292] | 
 | G (proived a mass modification ≦30%) | > 1000 | > 1000 | COc1cc(Nc2ncc(C(F)(F)F)c(Nc3ccc(C)cc3N)n2)c(C)cn1 [Compound I-353, N^4-(2-amino-4-methylphenyl)-N^2-(2-methoxy-5-methylpyridin-4-yl)-5-(trifluoromethyl)pyrimidine-2,4-diamine] | 
101 to 500 | E (provided a mass modification of ≧70%) |  |  | C=CC(=O)Nc1cc(C)ccc1Nc1nc(Nc2ncc(F)c(OC)n2)ncc1C(F)(F)F [Compound I-356, N-(2-((2-((5-fluoro-4-methoxypyrimidin-2-yl)amino)-5-(trifluoromethyl)pyrimidin-4-yl)amino)-5-methylphenyl)acrylamide] | 

Second part, the molecule before the results:

Compound | GI50 (HT-29 cells) [nM] | ERK1 Mass Mod (%) (Erk1) | EC50 [1, 2] [nM] | IC50 (MEK1 activated ERK1) [nM] | EC50 ([1]; HT-29, read-out: ERK1 PRSK MSD HT29 EC50 (nM)) [nM]
C=CC(=O)Nc1cc(F)ccc1Nc1nc(N[C@H]2CC[C@@H](F)CC2)ncc1C(F)(F)F [Compound I-8, N-(5-fluoro-2-((2-((cis-4-fluorocyclohexyl)amino)-5-(trifluoromethyl)pyrimidin-4-yl)amino)phenyl)acrylamide] | 501 to 999 | E (key: E: provided a mass modification of ≧70%; F: provided a mass modification of 31-69%; G: proived a mass modification ≦30%) |  |  | < 100
C=CC(=O)Nc1ccccc1Nc1nc(Nc2ccc(N3CCN(C(C)=O)CC3)cc2OC)ncc1C(F)(F)F [Compound I-66, N-(2-((2-((4-(4-Acetylpiperazin-1-yl)-2-methoxyphenyl)amino)-5-(trifluoromethyl)pyrimidin-4-yl)amino)phenyl)acrylamide] | 101 to 500 | E (key: E: provided a mass modification of ≧70%; F: provided a mass modification of 31-69%; G: proived a mass modification ≦30%) |  |  | 
C=CC(=O)Nc1ccccc1Nc1nc(N[C@H]2CC[C@H](OC)CC2)ncc1Cl [Compound I-100] | > 1000 | F (provided a mass modification of 31-69%) | 501 to 999 |  | 
C=CC(=O)N(C)c1ccccc1Nc1nc(N[C@H]2CC[C@H](O)CC2)ncc1Cl [Compound I-104, N-(2-((5-chloro-2-(trans-(4-hydroxycyclohexyl)amino)pyrimidin-4-yl)amino)phenyl)-N-methylacrylamide] | 501 to 999 | E (provided a mass modification of ≧70%) | 501 to 999 |  | 
C=CC(=O)Nc1ccccc1Nc1nc(Nc2ccc(N3CCN(C(C)=O)CC3)cc2OC)ncc1Cl [Compound I-149, N-(2-((2-((4-(4-acetylpiperazin-1-yl)-2-methoxyphenyl)amino)-5-chloropyrimidin-4-yl)amino)phenyl)acrylamide] | 101 to 500 | E (key: E: provided a mass modification of ≧70%; F: provided a mass modification of 31-69%; G: proived a mass modification ≦30%) |  |  | 
